Measurements: US8324250B2 (Hoffmann-La Roche Inc., priority 2009, dated 2012)

biological target: T1, recombinant human NK3 receptor (Homo sapiens, UniProt P29371); experiment: [3H]SR142801 competition binding assay; settings: membranes from HEK293 cells transiently expressing recombinant human NK3 receptor; [3H]SR142801 radioligand; 75 min at RT; Ki by Cheng-Prussoff; read-out: Data Ki (hNK-3 receptor affinity)
T1 construct: expressed in transfected cells; host or cells: HEK293 cells (transient expression), membranes
T1 sequence (P29371 1-465): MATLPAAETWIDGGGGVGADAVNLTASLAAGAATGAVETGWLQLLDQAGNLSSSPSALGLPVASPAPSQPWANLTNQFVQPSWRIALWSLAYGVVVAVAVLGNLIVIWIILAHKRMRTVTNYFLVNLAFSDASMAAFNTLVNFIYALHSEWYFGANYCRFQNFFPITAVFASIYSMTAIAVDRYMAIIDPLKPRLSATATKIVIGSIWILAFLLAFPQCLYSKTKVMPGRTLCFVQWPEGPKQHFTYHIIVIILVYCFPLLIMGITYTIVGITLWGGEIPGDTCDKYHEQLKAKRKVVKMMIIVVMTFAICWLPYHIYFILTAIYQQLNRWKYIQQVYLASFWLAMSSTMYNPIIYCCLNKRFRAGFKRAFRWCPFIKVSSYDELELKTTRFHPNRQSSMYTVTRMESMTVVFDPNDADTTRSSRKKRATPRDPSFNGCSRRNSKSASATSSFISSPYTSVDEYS
Protocol: [^3H]SR142801 Competition Binding Assay
hNK3 receptor binding experiment were performed using [^3H]SR142801 (Catalog No. TRK1035, specific activity: 74.0 Ci/mmol, Amersham, GE Healthcare UK limited, Buckinghamshire, UK) and membrane isolated from HEK293 cells transiently expressing recombinant human NK3 receptor. After thawing, the membrane homogenates were centrifuged at 48,000×g for 10 min at 4° C., the pellets were resuspended in the 50 mM Tris-HCl, 4 mM MnCl2, 1 μM phosphoramidon, 0.1% BSA binding buffer at pH 7.4 to a final assay concentration of 5 μg protein/well. […] At the end of the incubation, membranes were filtered onto unitfilter (96-well white microplate with bonded GF/C filter preincubated 1 h in 0.3% PEI+0.3% BSA, Packard BioScience, Meriden, Conn.) with a Filtermate 196 harvester (Packard BioScience) and washed 4 times with ice-cold 50 mM Tris-HCl, pH 7.4 buffer. Nonspecific binding was measured in the presence of 10 μM SB222200 for both radioligands. The radioactivity on the filter was counted (5 min) on a Packard Top-count microplate scintillation counter with quenching correction after addition of 45 μl of microscint 40 (Can berra Packard S. A., Zurich, Switzerland) and shaking for 1 h. Inhibition curves were fitted according to the Hill equation: y=100/(1+(x/IC50)^nH), where nH=slope factor using Excel-fit 4 software (Microsoft). IC50 values were derived from the inhibition curve and the affinity constant (Ki) values were calculated using the Cheng-Prussoff equation Ki═IC50/(1+[L]/KD) where [L] is the concentration of radioligand and KD is its dissociation constant at the receptor, derived from the saturation isotherm. All experiments were performed in duplicate and the mean±standard error (SEM) of the individual Ki values was calculated.

| SMILES | Ki |
| --- | --- |
| C[C@H](NC(=O)C1(c2ccccc2)CCN(C(=O)N2CCN(C3CCCC3)CC2)CC1)c1ccccc1 [Example 215, 1-(4-Cyclopentyl-piperazine-1-carbonyl)-4-phenyl-piperidine-4-carboxylic acid ((S)-1-phenyl-ethyl)-amide] | 20.6 nM |
| C[C@H](NC(=O)C1(c2ccccc2)CCN(C(=O)c2ccc(-c3ccccc3)cc2)CC1)c1ccccc1 [Example 2, 1-(Biphenyl-4-carbonyl)-4-phenyl-piperidine-4-carboxylic acid ((S)-1-phenyl-ethyl)-amide] | 22.9 nM |
| CC[C@H](NC(=O)C1(c2ccccc2)CCN(C(=O)N2CCN(c3ccc(F)cc3)CC2)CC1)c1ccccc1 [Example 231, 1-[4-(4-Fluoro-phenyl)-piperazine-1-carbonyl]-4-phenyl-piperidine-4-carboxylic acid ((S)-1-phenyl-propyl)-amide] | 3.4 nM |
| C[C@H](NC(=O)C1(c2ccccc2)CCN(C(=O)c2ccc(N3CCN(C)CC3)cc2)CC1)c1ccccc1 [Example 14, 1-[4-(4-Methyl-piperazin-1-yl)-benzoyl]-4-phenyl-piperidine-4-carboxylic acid ((S)-l-phenyl-ethyl)-amide] | 98.1 nM |
| C[C@H](NC(=O)C1(c2ccc(F)cc2)CCN(C(=O)C2CCN(c3ccc(C#N)cn3)CC2)CC1)c1ccc(F)cc1 [Example 156, 1-(5′-Cyano-3,4,5,6-tetrahydro-2H-[1,2′]bipyridinyl-4-carbonyl)-4-(4-fluoro-phenyl)-piperidine-4-carboxylic acid [(S)-1-(4-fluoro-phenyl)-ethyl]-amide] | 87 nM |
| C[C@H](NC(=O)C1(c2ccccc2)CCN(C(=O)c2ccc(-c3ccc(C#N)cc3)cc2)CC1)c1ccccc1 [Example 55, 1-(4′-Cyano-biphenyl-4-carbonyl)-4-piperidine-phenyl-4-carboxylic acid ((S)-1-phenyl-ethyl)-amide] | 14.8 nM |
| N#Cc1ccc(N2CCC(C(=O)N3CCC(C(=O)N[C@H](c4cccc(F)c4)C4CC4)(c4ccc(F)cc4)CC3)CC2)nc1 [Example 195, 1-(5′-Cyano-3,4,5,6-tetrahydro-2H-[1,2′]bipyridinyl-4-carbonyl)-4-(4-fluoro-phenyl)-piperidine-4-carboxylic acid [(S)-cyclopropyl-(3-fluoro-phenyl)-methyl]-amide] | 15 nM |
| C[C@H](NC(=O)C1(c2ccccc2)CCN(C(=O)c2ccc(-n3cncn3)nc2)CC1)c1ccccc1 [Example 39, 4-Phenyl-1-(6-[l,2,4]triazol-1-yl-pyridine-3-carbonyl)-piperidine-4-carboxylic acid ((S)-1-phenyl-ethyl)-amide] | 80.8 nM |
| CC[C@H](NC(=O)C1(c2ccccc2)CCN(C(=O)c2ccc(-c3ccc(F)cc3)cc2)CC1)c1ccccc1 [Example 85, 1-(4′-Fluoro-biphenyl-4-carbonyl)-4-phenyl-piperidine-4-carboxylic acid ((S)-1-phenyl-propyl)-amide] | 2.7 nM |
| O=C(c1ccc(-c2ccc(F)cc2)cc1)N1CCC(C(=O)N[C@@H](c2cccc(F)c2)C2CC2)(c2ccc(F)cc2)CC1 [Example 194, 1-(4′-Fluoro-biphenyl-4-carbonyl)-4-(4-fluoro-phenyl)-piperidine-4-carboxylic acid [(R)-cyclopropyl-(3-fluoro-phenyl)-methyl]-amide] | 35 nM |
| C[C@H](NC(=O)C1(c2ccccc2)CCN(C(=O)c2ccc(N3CCCCC3)cc2)CC1)c1ccccc1 [Example 11, 4-Phenyl-1-(4-piperidin-1-yl-benzoyl)-piperidine-4-carboxylic acid ((S)-1-phenyl-ethyl)-amide] | 44 nM |
| Cc1noc(-c2ccc(C(=O)N3CCC(C(=O)N[C@@H](C)c4ccc(F)cc4)(C4CCCCC4)CC3)cc2)n1 [Example 109, 4-Cyclohexyl-1-[4-(3-methyl-[1,2,4]oxa-diazol-5-yl)-benzoyl]-piperidine-4-carboxylic acid [(S)-1-(4-fluoro-phenyl)-ethyl]-amide] | 82 nM |
